Test results reported in patent US12551463B2, “Dosing of a Bruton's tyrosine kinase inhibitor” (Loxo Oncology, Inc., priority 2019, dated 2026).
Like-named read-outs stand apart in the source and are kept apart here.

Legend:
CLL/SLL = assay: Phase 1/2 clinical study, CLL/SLL patients; type: in vivo, human
Source text: (§1) The study is an open-label, multi-center study of oral BTK-I to evaluate safety and efficacy as monotherapy and as part of combination therapy in patients with CLL/SLL and NHL who have failed or are intolerant to standard of care. This study includes monotherapy as well as combination treatment parts. The monotherapy part includes Phase 1 dose escalation and dose expansion as well as Phase 2. The combination therapy part is a Phase 1b (safety assessment and expansion) of BTK-I in combination with venetoclax, with or without anti-CD20 therapy. Phase 1 dose escalation will proceed prior to start of Phase 1b or Phase 2. Once a recommended Phase 2 dose (RP2D) is identified in Phase 1, enrollment can commence to the Phase 1b combination therapies and Phase 2 monotherapy cohorts.
(§2) The primary objectives of the Phase 1 Dose Escalation and Expansion part of the study is to determine the maximum tolerated dose (MTD)/RP2D of oral BTK-I in patients with previously treated CLL/SLL and B-cell NHL.
(§3) Patients are enrolled with histologically confirmed CLL/SLL or B-cell NHL who have failed or are intolerant to at least two prior standard of care regimens given in combination or sequentially or have received at least one prior BTK inhibitor-containing regimen when BTK inhibitor is approved in first line.
(§4) BTK-I is administered in oral tablet form. Dose escalation will follow a 3+3 design starting with a 25 mg QD dose (followed by 50 mg QD (dose level cohort 2), 100 mg QD (dose level cohort 3), 150 mg QD (dose level cohort 4), 200 mg QD (dose level cohort 5), 250 mg QD (dose level cohort 6), and 300 mg QD (dose level cohort 7)). Cycle length will be 28 days. The drug limiting toxicity (DLT) period will be 28 days, commencing with the first dose of BTK-I.
(§5) The primary objective of the Phase 2 is to assess the primary anti-tumor activity of BTK-I based on overall response rate (ORR) and as assessed by the Independent Review Committee.
(§6) At the RP2D up to ˜600 patients with CLL/SLL or NHL will be enrolled to one of the following cohorts: • Cohort 1: Non-blastoid MCL patients treated with a prior BTK-inhibitor. • Cohort 2: CLL/SLL patients treated with 2 or more prior regimens, including a BTK inhibitor-containing regimen. • Cohort 3: CLL/SLL patients with no prior therapy. • Cohort 4: CLL/SLL patients treated with prior therapy, BTK inhibitor naive. • Cohort 5: WM patients treated with a prior BTK inhibitor containing regimen. • Cohort 6: MZL patients treated with a prior BTK inhibitor containing regimen. • Cohort 7: (Not otherwise specified) defined as CLL/SLL or NHL not otherwise specified in Cohorts 1 through 6, inclusive of CLL/SLL or NHL, Richter's transformation, blastoid MCL, and patients with history of CNS involvement or primary CNS lymphoma.
(§7) Dosing during Phase 2 will be at the RP2D of 200 mg QD. The cycle length will be 28 days. BTK-I will be administered to the Phase 2 patients in oral tablet form at the RP2D. The dose (and schedule) chosen for Phase 2 may be changed by the SRC based on emerging data (e.g., PK, safety, and/or efficacy) as long as the new dose is not greater than the highest dose that has a DLT <33% and is determined to be safe by the SRC in Phase 1. If the RP2D is changed based on emerging data, patients enrolled to Phase 2 at a different dose may have the dose changed to the new dose.

Richter's transformation = assay: Phase 1/2 clinical study, Richter's transformation patients; type: in vivo, human; conditions: 6 of 8 patients
Source text: as §1, with “cohorts. […]” for “cohorts.”
The primary objective of the Phase 2 is to assess the primary anti-tumor activity of BTK-I based on overall response rate (ORR) and as assessed by the Independent Review Committee. […]
Dosing during Phase 2 will be at the RP2D of 200 mg QD. […] The dose (and schedule) chosen for Phase 2 may be changed by the SRC based on emerging data (e.g., PK, safety, and/or efficacy) as long as the new dose is not greater than the highest dose that has a DLT <33% and is determined to be safe by the SRC in Phase 1. […]

BTK C481S mutant = target: T1, BTK C481S mutant (Homo sapiens, UniProt Q06187, C481S); assay: BTK Y223 autophosphorylation in HEK293 cells expressing BTK C481S mutant; type: cell-based
T1 construct: expressed in transfected cells
T1 sequence (Q06187 whole entry C481S): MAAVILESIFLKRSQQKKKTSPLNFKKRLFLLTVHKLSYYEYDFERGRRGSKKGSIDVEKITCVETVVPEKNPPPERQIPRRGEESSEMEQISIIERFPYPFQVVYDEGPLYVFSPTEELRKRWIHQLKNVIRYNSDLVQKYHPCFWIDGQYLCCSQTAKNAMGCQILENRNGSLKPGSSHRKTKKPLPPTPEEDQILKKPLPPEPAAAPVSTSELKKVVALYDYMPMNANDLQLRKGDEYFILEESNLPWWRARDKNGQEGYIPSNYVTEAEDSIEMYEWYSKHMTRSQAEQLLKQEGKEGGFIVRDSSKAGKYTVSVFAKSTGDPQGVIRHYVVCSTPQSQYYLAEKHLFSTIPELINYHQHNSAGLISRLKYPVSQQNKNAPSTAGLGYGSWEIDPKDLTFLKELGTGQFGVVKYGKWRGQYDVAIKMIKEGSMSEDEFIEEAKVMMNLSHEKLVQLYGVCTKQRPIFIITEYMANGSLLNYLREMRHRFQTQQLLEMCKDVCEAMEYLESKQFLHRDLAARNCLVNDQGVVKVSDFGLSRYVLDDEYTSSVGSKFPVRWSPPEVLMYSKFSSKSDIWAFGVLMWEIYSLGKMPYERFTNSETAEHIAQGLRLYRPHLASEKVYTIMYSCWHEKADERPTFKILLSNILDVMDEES
Procedure: HEK293 cell lines stably expressing BTK wild type and the mutant form C481S are generated using standard transfection methods. For assessment of cellular inhibition potency, cells are grown in DMEM+10% FBS+1 μg/mL puromycin (complete growth media) at 37° C. in a C02 incubator. Cells are harvested according to standard protocols using TrypLE (Gibco #12604-013), counted, resuspended in complete growth media, and added to 6 well assay plates at […] in 2 mL. Plates are incubated overnight at 37° C. with 5% C02. The following day, cells are treated for 2 hours with BTK-I, prepared as a 6-point dose curve, 1:3 dilution series with final concentrations starting at a maximum concentration of 300 nM and a constant DMSO concentration of 0.5% (v/v). Control wells contain 0.5% (v/v) DMSO alone (no inhibition control). […] Supernatants are quantified by BCA (Pierce #23225) and stored at −80° C. Samples are analyzed by Simple Western (Protein Simple) with anti-phospho-BTK (Y223) (Cell signaling technologies (cst) #5082) and anti-BTK (cst #8547). β-actin is the used as a loading control and detected by regular Western blot with an anti-β-actin antibody (cst #4970). Simple Western results are analyzed with Compass software (Protein Simple). BTK Y223 phosphorylation signal is normalized to total BTK, and IC50 values are calculated using a 4-parameter fit in GraphPad Prism 7.04 software.

MCL = assay: Phase 1/2 clinical study, mantle cell lymphoma patients; type: in vivo, human
Source text: as §1, §2, §3, §4, §5, §6, §7

Work on `COc1ccc(F)cc1C(=O)NCc1ccc(-c2nn([C@@H](C)C(F)(F)F)c(N)c2C(N)=O)cc1` [BTK-I, (S)-5-amino-3-(4-((5-fluoro-2-methoxybenzamido)methyl)phenyl)-1-(1,1,1-trifluoropropane-2-yl)-1H-pyrazole-4-carboxamide] yielded an ORR (CLL/SLL; 28 patients with 17p deletion, TP53 mutation, or both) of 79%, an ORR (CLL/SLL; 121 BTK-pretreated patients, CI: 53-71%) of 62% and an ORR (CLL/SLL; 139 efficacy-evaluable CLL/SLL patients, all dose levels, 95% CI: 55-71) of 63%. The “patients remaining on BTK-I” value (CLL/SLL; all CLL/SLL patients) was 88%, the ORR (CLL/SLL; at ≥10 months (25/29)) was 86% and the ORR (CLL/SLL; discontinued covalent BTK inhibitor for progression [53/79]) was 67%. The ORR (CLL/SLL; discontinued covalent BTK inhibitor for toxicity or another reason [22/42]) was 52%, the ORR (CLL/SLL; followed for at least 8 months (35/49)) was 71% and the “BTK C481 mutant allele fraction from peripheral blood mononuclear cells” value (CLL/SLL; majority of responding patients) was “decreased over time”. The “responding patients no longer on therapy” value (CLL/SLL; of 88 responders (4 progressed, 1 electively discontinued)) was 5, the “non-evaluable (NE), patients” value (CLL/SLL; of 139, discontinued prior to first response assessment) was 5 and the “PR-L, patients” value (CLL/SLL; of 139 efficacy-evaluable) was 19. The “partial response (PR), patients” value (CLL/SLL; of 139 efficacy-evaluable) was 69, the “progressive disease (PD), patients” value (CLL/SLL; of 139 efficacy-evaluable) was 1 and the “stable disease (SD), patients” value (CLL/SLL; of 139 efficacy-evaluable) was 45. It also gave an ORR (CLL/SLL; progression on prior covalent BTK inhibitor, with BTK C481 mutation [15/20]) of 75%, an ORR (CLL/SLL; progression on prior covalent BTK inhibitor, without BTK C481 mutation [18/30]) of 60% and a responses (Richter's transformation) of 75%. The IC90 (BTK C481S mutant; read-out: IC90) was 79.2 nM, the IC90 (BTK C481S mutant; read-out: IC90 translated to total drug in human plasma) was 0.824 µg/mL and the ORR (MCL; 52 patients with prior covalent BTK inhibitor, 95% CI: 38-66) was 52%. For the same compound, the ORR (MCL; 56 efficacy-evaluable MCL patients, 95% CI: 38-65) was 52%, the “median time to first response” value (MCL; MCL) was 1.8 months and the “patients remaining on BTK-I” value (MCL; all MCL patients) was 57%. For the same compound, the “responding patients who discontinued treatment” value (MCL; of 29 responders (4 PD, 1 in CR)) was 5, the “CR, patients” value (MCL; of 56 efficacy-evaluable) was 14 and the “NE, patients” value (MCL; of 56 efficacy-evaluable) was 5. The “PD, patients” value (MCL; of 56 efficacy-evaluable) was 12, the “PR, patients” value (MCL; of 56 efficacy-evaluable) was 15 and the responses (MCL; patients with blastoid variant MCL) was 2 of 4. The responses (MCL; patients with prior CAR-T) was 2 of 2 and the responses (MCL; prior autologous or allogeneic transplant (9/14)) was 64%.
